{"source": "the supplement of paper PMC10307832", "experiment_in_all_cases": "relative viability (nuclei count vs DMSO), 5 days (fraction); higher = more cells survive", "key": {"BEN": {"tested_on": "BEN", "outline": "(§1)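 Each reported value is a median over duplicate plates. It expresses relative viability: treated-well nuclei count divided by vehicle-well nuclei count. Lung cancer cell lines in 1536-well plates were dosed by pin tool a day after seeding, alone with one drug or with a fixed anchor-drug dose plus five library-drug doses (not always all listed) in √10 steps, and nuclei were counted after 5 days.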"}, "HCC-15": {"tested_on": "HCC-15", "outline": "as §1"}, "HCC-78": {"tested_on": "HCC-78", "outline": "as §1"}, "LC-2-ad": {"tested_on": "LC-2-ad", "outline": "as §1"}, "LCLC-97TM1": {"tested_on": "LCLC-97TM1", "outline": "as §1"}, "LK-2": {"tested_on": "LK-2", "outline": "as §1"}, "LU99A": {"tested_on": "LU99A", "outline": "as §1"}, "LXF-289": {"tested_on": "LXF-289", "outline": "as §1"}, "NCI-H1651": {"tested_on": "NCI-H1651", "outline": "as §1"}, "NCI-H1666": {"tested_on": "NCI-H1666", "outline": "as §1"}, "NCI-H1944": {"tested_on": "NCI-H1944", "outline": "as §1"}, "NCI-H2087": {"tested_on": "NCI-H2087", "outline": "as §1"}, "NCI-H322M": {"tested_on": "NCI-H322M", "outline": "as §1"}, "NCI-H358": {"tested_on": "NCI-H358", "outline": "as §1"}, "NCI-H596": {"tested_on": "NCI-H596", "outline": "as §1"}, "NCI-H650": {"tested_on": "NCI-H650", "outline": "as §1"}, "NCI-H661": {"tested_on": "NCI-H661", "outline": "as §1"}, "NCI-H838": {"tested_on": "NCI-H838", "outline": "as §1"}, "PC-3 [JPC-3]": {"tested_on": "PC-3 [JPC-3]", "outline": "as §1"}, "SK-MES-1": {"tested_on": "SK-MES-1", "outline": "as §1"}, "UMC-11": {"tested_on": "UMC-11", "outline": "as §1"}}}
{"smiles": "O=C(O)c1ccc(-c2c[nH]c3ncc(-c4ccccc4)cc23)cc1C1CCCC1", "note": "+ CS(=O)(=O)CCNCc1ccc(-c2ccc3ncnc(Nc4ccc(OCc5cccc(F)c5)c(Cl)c4)c3c2)o1 [Lapatinib] (partner 2 µM)", "values": [{"measurement": "relative viability", "setting": "BEN; first compound 0.04 µM", "value": 0.717}, {"measurement": "relative viability", "setting": "BEN; first compound 0.1265 µM", "value": 0.611}, {"measurement": "relative viability", "setting": "BEN; first compound 0.4 µM", "value": 0.815}, {"measurement": "relative viability", "setting": "BEN; first compound 1.265 µM", "value": 0.666}, {"measurement": "relative viability", "setting": "HCC-15; first compound 0.04 µM", "value": 0.882}, {"measurement": "relative viability", "setting": "HCC-15; first compound 0.1265 µM", "value": 0.987}, {"measurement": "relative viability", "setting": "HCC-15; first compound 0.4 µM", "value": 0.838}, {"measurement": "relative viability", "setting": "HCC-15; first compound 1.265 µM", "value": 0.551}, {"measurement": "relative viability", "setting": "HCC-78; first compound 0.04 µM", "value": 0.595}, {"measurement": "relative viability", "setting": "HCC-78; first compound 0.1265 µM", "value": 1.25}, {"measurement": "relative viability", "setting": "HCC-78; first compound 0.4 µM", "value": 0.979}, {"measurement": "relative viability", "setting": "HCC-78; first compound 1.265 µM", "value": 0.64}, {"measurement": "relative viability", "setting": "LC-2-ad; first compound 0.04 µM", "value": 1}, {"measurement": "relative viability", "setting": "LC-2-ad; first compound 0.1265 µM", "value": 1.02}, {"measurement": "relative viability", "setting": "LC-2-ad; first compound 0.4 µM", "value": 0.904}, {"measurement": "relative viability", "setting": "LC-2-ad; first compound 1.265 µM", "value": 0.803}, {"measurement": "relative viability", "setting": "LCLC-97TM1; first compound 0.04 µM", "value": 1.34}, {"measurement": "relative viability", "setting": "LCLC-97TM1; first compound 0.1265 µM", "value": 1.06}, {"measurement": "relative viability", "setting": "LCLC-97TM1; first compound 0.4 µM", "value": 0.922}, {"measurement": "relative viability", "setting": "LCLC-97TM1; first compound 1.265 µM", "value": 0.717}, {"measurement": "relative viability", "setting": "LK-2; first compound 0.04 µM", "value": 0.968}, {"measurement": "relative viability", "setting": "LK-2; first compound 0.1265 µM", "value": 0.902}, {"measurement": "relative viability", "setting": "LK-2; first compound 0.4 µM", "value": 0.744}, {"measurement": "relative viability", "setting": "LK-2; first compound 1.265 µM", "value": 0.934}, {"measurement": "relative viability", "setting": "LU99A; first compound 0.04 µM", "value": 0.972}, {"measurement": "relative viability", "setting": "LU99A; first compound 0.1265 µM", "value": 1.2}, {"measurement": "relative viability", "setting": "LU99A; first compound 0.4 µM", "value": 0.954}, {"measurement": "relative viability", "setting": "LU99A; first compound 1.265 µM", "value": 0.792}, {"measurement": "relative viability", "setting": "LXF-289; first compound 0.04 µM", "value": 0.96}, {"measurement": "relative viability", "setting": "LXF-289; first compound 0.1265 µM", "value": 0.936}, {"measurement": "relative viability", "setting": "LXF-289; first compound 0.4 µM", "value": 0.822}, {"measurement": "relative viability", "setting": "LXF-289; first compound 1.265 µM", "value": 0.619}, {"measurement": "relative viability", "setting": "NCI-H1651; first compound 0.04 µM", "value": 0.856}, {"measurement": "relative viability", "setting": "NCI-H1651; first compound 0.1265 µM", "value": 0.867}, {"measurement": "relative viability", "setting": "NCI-H1651; first compound 0.4 µM", "value": 0.826}, {"measurement": "relative viability", "setting": "NCI-H1651; first compound 1.265 µM", "value": 0.472}, {"measurement": "relative viability", "setting": "NCI-H1666; first compound 0.04 µM", "value": 0.673}, {"measurement": "relative viability", "setting": "NCI-H1666; first compound 0.1265 µM", "value": 0.522}, {"measurement": "relative viability", "setting": "NCI-H1666; first compound 0.4 µM", "value": 0.796}, {"measurement": "relative viability", "setting": "NCI-H1666; first compound 1.265 µM", "value": 0.344}, {"measurement": "relative viability", "setting": "NCI-H1944; first compound 0.04 µM", "value": 0.695}, {"measurement": "relative viability", "setting": "NCI-H1944; first compound 0.1265 µM", "value": 1}, {"measurement": "relative viability", "setting": "NCI-H1944; first compound 0.4 µM", "value": 0.623}, {"measurement": "relative viability", "setting": "NCI-H1944; first compound 1.265 µM", "value": 0.736}, {"measurement": "relative viability", "setting": "NCI-H2087; first compound 0.04 µM", "value": 1.01}, {"measurement": "relative viability", "setting": "NCI-H2087; first compound 0.1265 µM", "value": 1.27}, {"measurement": "relative viability", "setting": "NCI-H2087; first compound 0.4 µM", "value": 1.02}, {"measurement": "relative viability", "setting": "NCI-H2087; first compound 1.265 µM", "value": 1.02}, {"measurement": "relative viability", "setting": "NCI-H322M; first compound 0.04 µM", "value": 0.589}, {"measurement": "relative viability", "setting": "NCI-H322M; first compound 0.1265 µM", "value": 0.618}, {"measurement": "relative viability", "setting": "NCI-H322M; first compound 0.4 µM", "value": 0.727}, {"measurement": "relative viability", "setting": "NCI-H322M; first compound 1.265 µM", "value": 0.55}, {"measurement": "relative viability", "setting": "NCI-H358; first compound 0.04 µM", "value": 0.438}, {"measurement": "relative viability", "setting": "NCI-H358; first compound 0.1265 µM", "value": 0.447}, {"measurement": "relative viability", "setting": "NCI-H358; first compound 0.4 µM", "value": 0.448}, {"measurement": "relative viability", "setting": "NCI-H358; first compound 1.265 µM", "value": 0.323}, {"measurement": "relative viability", "setting": "NCI-H596; first compound 0.04 µM", "value": 1.1}, {"measurement": "relative viability", "setting": "NCI-H596; first compound 0.1265 µM", "value": 1.02}, {"measurement": "relative viability", "setting": "NCI-H596; first compound 0.4 µM", "value": 0.979}, {"measurement": "relative viability", "setting": "NCI-H596; first compound 1.265 µM", "value": 1.03}, {"measurement": "relative viability", "setting": "NCI-H650; first compound 0.04 µM", "value": 0.712}, {"measurement": "relative viability", "setting": "NCI-H650; first compound 0.1265 µM", "value": 1.26}, {"measurement": "relative viability", "setting": "NCI-H650; first compound 0.4 µM", "value": 0.639}, {"measurement": "relative viability", "setting": "NCI-H650; first compound 1.265 µM", "value": 0.561}, {"measurement": "relative viability", "setting": "NCI-H661; first compound 0.04 µM", "value": 0.455}, {"measurement": "relative viability", "setting": "NCI-H661; first compound 0.1265 µM", "value": 0.633}, {"measurement": "relative viability", "setting": "NCI-H661; first compound 0.4 µM", "value": 0.515}, {"measurement": "relative viability", "setting": "NCI-H661; first compound 1.265 µM", "value": 0.458}, {"measurement": "relative viability", "setting": "NCI-H838; first compound 0.04 µM", "value": 0.92}, {"measurement": "relative viability", "setting": "NCI-H838; first compound 0.1265 µM", "value": 1.4}, {"measurement": "relative viability", "setting": "NCI-H838; first compound 0.4 µM", "value": 1.11}, {"measurement": "relative viability", "setting": "NCI-H838; first compound 1.265 µM", "value": 0.915}, {"measurement": "relative viability", "setting": "PC-3 [JPC-3]; first compound 0.04 µM", "value": 0.51}, {"measurement": "relative viability", "setting": "PC-3 [JPC-3]; first compound 0.1265 µM", "value": 0.489}, {"measurement": "relative viability", "setting": "PC-3 [JPC-3]; first compound 0.4 µM", "value": 0.466}, {"measurement": "relative viability", "setting": "PC-3 [JPC-3]; first compound 1.265 µM", "value": 0.459}, {"measurement": "relative viability", "setting": "SK-MES-1; first compound 0.04 µM", "value": 0.443}, {"measurement": "relative viability", "setting": "SK-MES-1; first compound 0.1265 µM", "value": 0.495}, {"measurement": "relative viability", "setting": "SK-MES-1; first compound 0.4 µM", "value": 0.464}, {"measurement": "relative viability", "setting": "SK-MES-1; first compound 1.265 µM", "value": 0.412}, {"measurement": "relative viability", "setting": "UMC-11; first compound 0.04 µM", "value": 0.994}, {"measurement": "relative viability", "setting": "UMC-11; first compound 0.1265 µM", "value": 1.09}, {"measurement": "relative viability", "setting": "UMC-11; first compound 0.4 µM", "value": 1.06}, {"measurement": "relative viability", "setting": "UMC-11; first compound 1.265 µM", "value": 1.01}]}
